Several values for one entry are separate records, joined by “and”; a condition that tells them apart may be missing. Equal entries are not always repeated.

The target of experiment [1] is T1, human CXCR4 (CXCL12/CXCR4) (Homo sapiens, UniProt P48061).
T1 construct: expressed in transfected cells; host or cells: S. cerevisiae strain CY12946
The experiment in a line: CXCR4-specific signaling in yeast (lacZ reporter), CXCL12-triggered. The experiment is classed as cell-based. The settings on record: 2 μM CXCL12.
Procedure: CXCR4-specific signaling in a yeast-based cell system. […] Briefly, yeast transformants stably expressing human CXCR4 were grown overnight at 30° C. in yeast nitrogen base selective medium (Formedium, UK). Cells were diluted to an OD600 of 0.2 and grown to an OD600 of 0.3-0.6. […] OD600 was measured and activation of CXCR4 signaling quantified by β-galactosidase activity using a commercial BetaGlo Kit (Promega, Mannheim, Germany).

For experiment [2], the system named is primary mouse spleen B lymphocytes. The experiment in a line: Transwell chemotaxis of B cells elicited by MIF. The experiment is classed as cell-based. The settings on record: 16 nM MIF. The protocol: (§1) Chemotaxis analysis of murine B cells. A Transwell-based assay was used as described previously^34. Briefly, splenic B cells were isolated by negative depletion using a Pan B Cell Isolation Kit (Miltenyi Biotec. Bergisch Gladbach, Germany). Purity of the cells was between 95 and 99%. […] Chemotaxis was followed for 4 h at 37° C. in a humidified atmosphere of 5% CO2. Migrated cells were counted by flow cytometry using CountBright™ Absolute Counting Beads (Molecular Probes-Invitrogen).

Experiment [3] shares this test system. The experiment in a line: Transwell chemotaxis of B cells elicited by CXCL12. The format is cell-based. Here is the method: as §1
The test system of experiment [4] is human cardiomyocytes (HCM), pAMPK. The experiment in a line: MIF-triggered AMPK signaling in cardiomyocytes (MIF/CD74). The settings on record: 16 nM MIF; 1- and 5-fold excess. The format is cell-based. The protocol: CD74 signaling in human cardiomyocytes. Before stimulation, medium was replaced by fresh myocyte basal medium containing 0.05% FCS and HCMs rested for 16 h. Surface CD74 expression on HCMs was verified by flow cytometry (FITC-conjugated anti-human CD74, FITC-IgG2 (isotype control) (BD Pharmingen), 1 h/4° C. in the dark, BD FACSVerse™ flow cytometer, FlowJo software). […] After treatment, cells were lysed and subjected to SDS-PAGE/Western blotting. […] Anti-rabbit horseradish peroxidase (HRP)-conjugated antibody (1:10000, GE Healthcare, Freiburg, Germany) was used for development and signals quantitated by chemiluminescence using an Odyssey® Fc imager.

The test system of experiment [5] is MonoMac-6 monocytes on human aortic endothelial cells (HAoECs). The experiment in a line: Static monocyte adhesion, MIF-induced. The format is cell-based. The settings on record: 16 nM MIF, 320 nM peptide. The protocol:
Static monocyte adhesion. HAoECs were seeded at a density of 30.000 cells/well in 6 well μ-Ibidi Perfusion slides VI 0.4 (Ibidi GmbH). […] After perfusion of the chambers with fresh medium, MonoMac6 cells (1×10^6 cells/mL) in PromoCell medium were added for 30 min. Non-adhering cells were flushed away by gentle perfusion using a 30 mL syringe. To quantify adherent monocytes, 10 individual images from each treatment were acquired using a Leica DMi8 inverted microscope with a 10× objective and cells quantified using Image J.

Experiment [6] has as its system Apoe−/− mice with established plaques. The experiment in a line: Regression model of atherosclerosis. The format is in vivo, mouse. From the text:
Control mice received saline. Mice were sacrificed after 9 weeks and vessel tissues prepared for plaque, cell, and macrophage staining. A. C, E, staining of aortic root sections with oil red O (ORO), hematoxylin eosin (HE), and anti-CD68, respectively. G, staining of aortic arch with HE. B, D, F, H, respective quantifications from 14 mice per group. Statistics: two-tailed, unpaired Mann-Whitney test; *, P<0.05; **, P<0.01.
To further test the therapeutic applicability of msR4M-L1, an in vivo test in a “regression setting” was applied to mimic the patient situation, who is typically seen by a physician only when symptoms occur. The real-life situation is thus one in which preformed plaques already exist, when a patient starts treatment. A regression model therefore better mimics the situation in patient with pre-existing atherosclerotic disease.
In a pilot study, atherogenic ApoE−/− mice were put on Western diet for 4.5 wks.

T1 sequence (P48061 22-89 limits assumed): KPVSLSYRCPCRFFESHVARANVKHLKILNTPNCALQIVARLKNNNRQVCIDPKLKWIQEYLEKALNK

On to `CC[C@H](C)[C@H](NC(=O)[C@H](Cc1ccc(O)cc1)NC(=O)[C@H](CCCNC(=N)N)NC(=O)[C@H](CC(=O)O)NC(=O)CCCCCCCCCCCNC(=O)CCCCCNC(=O)[C@H](CCCCN)NC(=O)[C@H](CS)NC(=O)[C@H](CC(C)C)NC(=O)[C@H](Cc1ccccc1)NC(=O)[C@H](CC(N)=O)NC(=O)CNC(=O)[C@H](Cc1ccccc1)NC(=O)[C@H](Cc1ccc(O)cc1)NC(=O)[C@H](Cc1c[nH]c2ccccc12)NC(=O)[C@H](CC(N)=O)NC(=O)[C@H](C)NC(=O)[C@@H](NC(=O)[C@H](C)NC(=O)[C@@H](N)CC(=O)O)C(C)C)C(=O)N[C@@H](CS)C(=O)N[C@@H](CC(=O)O)C(=O)N[C@@H](CCCNC(=N)N)C(=O)N[C@@H](Cc1ccccc1)C(=O)N[C@@H](Cc1ccc(O)cc1)C(=O)N1CCC[C@H]1C(=O)N[C@@H](CC(N)=O)C(=O)N[C@@H](CC(=O)O)C(=O)N[C@@H](CC(C)C)C(=O)N[C@@H](Cc1c[nH]c2ccccc12)C(=O)N[C@H](C(N)=O)C(C)C` [msR4M-L1], for which, in experiment [1], the “effect on CXCL12/CXCR4-elicited signaling” value is reported as “remained unaffected”. In experiment [2], the “inhibition of MIF-mediated B-cell chemotaxis” value is on record as “fully blocked” and the “molar excess over MIF at maximal inhibition” value was 5 -fold molar excess. Further, the half-inhibitory concentration (IC50) (usually the concentration that gives 50% inhibition) in experiment [2] (read-out: IC50 of MIF-mediated B-lymphocyte chemotaxis) is 0.01 µM and 0.01 to 0.015 µM. In addition, in experiment [3], the “effect on CXCL12-elicited B-cell chemotaxis” value is “unable to inhibit chemotaxis elicited by CXCL12”. Further, the “effect on MIF-upregulated pAMPK levels” value in experiment [4] is recorded as “not attenuated”. Further, the “effect on MIF-induced static monocyte adhesion” value in experiment [5] is recorded as “ablated the pro-adhesion effect of MIF”. The “plaque load, pilot regression study” value in experiment [6] (4-5 mice per group, 50 μg/mouse, 3× per week) is recorded as “decreased plaque load (trend)”. For the same compound, in experiment [6] (14 mice per group), the “atherosclerotic plaques (ORO and HE aortic root, HE aortic arch), regression study” value is given as “leads to a regression of atherosclerotic plaques”; the “intralesional inflammation, CD68+ macrophage area” value is “reduced”.

Values taken from patent US20230242616A1, “CHEMOKINE-SELECTIVE CXCR4 ECTODOMAIN-DERIVED (POLY)PEPTIDE” (Ludwig-Maximilians-Universität München, priority 2020, published 2023).
